How the values were obtained:
Type in all cases: cell-based
Mec-1 cells = assay: Cell growth curves over 12 days, Mec-1
Experimental: (§1) Live cells/mL were counted on days 3, 6, 10, and 12. […] The split factor was calculated at indicated time points by dividing the counted cells/mL by 3E5. Cell growth was extrapolated over time by multiplying the subsequent cell count by the previous split factor. Cell growth is plotted as fold change relative to DMSO-treated cells.

HG3 cells = assay: Cell growth curves over 12 days, HG3
Experimental: as §1

HG3 CLL cell line = assay: Global symmetric dimethyl arginine (SDMA) western blot, HG3; settings: HG3, 72 h treatment
Text: Proteins extracted from whole-cell lysates were resolved by SDS-PAGE and transferred on nitrocellulose membrane as previously described. CpG685 oligonucleotide was obtained from the OSU Cytogenetics Core Lab. Antibodies used for immunoblots included anti-human PRMT5 (Abcam #ab109451), GAPDH (Millipore Sigma #MAB374), SDMA (Cell Signaling Technology #13222), c-Myc (Cell Signaling Technology #5605S), and β-Actin (Cell Signaling Technology #4967S). Cas9-mediated doxycycline-inducible knockout of PRMT5 utilized a targeted sgRNA (guide sequence: […], PAM: GGG).

[1] = Mec-1, continuous exposure over 12 days
[2] = HG3, continuous exposure over 12 days

## CON=c1nc[nH]c2c1ccn2[C@@H]1O[C@H]([C@H](O)c2ccc(Cl)c(Cl)c2)[C@@H](O)[C@H]1O.Cl [PRT382, (2 R,3 S,4 R,5 R)-2-[(R)-(3,4-dichlorophenyl)-hydroxy-methyl]-5-[(4Z)-4-methoxyimino-1H-pyrrolo[2,3-d]pyrimidin-7-yl]tetrahydrofuran-3,4-diol hydrochloride]
Mec-1 cells; Mec-1
  anti-proliferative potency compared to JNJ-64619178, LLY-283, and PF-06855800: similar-to-reduced
Mec-1 cells; Mec-1, 1 nM, day 0
  Rep 1 Live Cells [Fold Change]: 1 Fold Change
  Rep 2 Live Cells [Fold Change]: 1 Fold Change
  Rep 3 Live Cells [Fold Change]: 1 Fold Change
Mec-1 cells; Mec-1, 1 nM, day 3
  Rep 1 Live Cells [Fold Change]: 5.48 Fold Change
  Rep 2 Live Cells [Fold Change]: 7.38 Fold Change
  Rep 3 Live Cells [Fold Change]: 6.82 Fold Change
Mec-1 cells; Mec-1, 1 nM, day 6
  Rep 1 Live Cells [Fold Change]: 47.7 Fold Change
  Rep 2 Live Cells [Fold Change]: 61 Fold Change
  Rep 3 Live Cells [Fold Change]: 62.4 Fold Change
Mec-1 cells; Mec-1, 1 nM, day 10
  Rep 1 Live Cells [Fold Change]: 655 Fold Change
  Rep 2 Live Cells [Fold Change]: 809 Fold Change
  Rep 3 Live Cells [Fold Change]: 898 Fold Change
Mec-1 cells; Mec-1, 1 nM, day 12
  Rep 1 Live Cells [Fold Change]: 2650 Fold Change
  Rep 2 Live Cells [Fold Change]: 2940 Fold Change
  Rep 3 Live Cells [Fold Change]: 4480 Fold Change
Mec-1 cells; Mec-1, 10 nM, day 0
  Rep 1 Live Cells [Fold Change]: 1 Fold Change
  Rep 2 Live Cells [Fold Change]: 1 Fold Change
  Rep 3 Live Cells [Fold Change]: 1 Fold Change
Mec-1 cells; Mec-1, 10 nM, day 3
  Rep 1 Live Cells [Fold Change]: 8.13 Fold Change
  Rep 2 Live Cells [Fold Change]: 8.43 Fold Change
  Rep 3 Live Cells [Fold Change]: 7.78 Fold Change
Mec-1 cells; Mec-1, 10 nM, day 6
  Rep 1 Live Cells [Fold Change]: 70.5 Fold Change
  Rep 2 Live Cells [Fold Change]: 65.2 Fold Change
  Rep 3 Live Cells [Fold Change]: 77.4 Fold Change
Mec-1 cells; Mec-1, 10 nM, day 10
  Rep 1 Live Cells [Fold Change]: 909 Fold Change
  Rep 2 Live Cells [Fold Change]: 1080 Fold Change
  Rep 3 Live Cells [Fold Change]: 887 Fold Change
Mec-1 cells; Mec-1, 10 nM, day 12
  Rep 1 Live Cells [Fold Change]: 3770 Fold Change
  Rep 2 Live Cells [Fold Change]: 3720 Fold Change
  Rep 3 Live Cells [Fold Change]: 6410 Fold Change
Mec-1 cells; Mec-1, 100 nM, day 0
  Rep 1 Live Cells [Fold Change]: 1 Fold Change
  Rep 2 Live Cells [Fold Change]: 1 Fold Change
  Rep 3 Live Cells [Fold Change]: 1 Fold Change
Mec-1 cells; Mec-1, 100 nM, day 3
  Rep 1 Live Cells [Fold Change]: 6.3 Fold Change
  Rep 2 Live Cells [Fold Change]: 5.17 Fold Change
  Rep 3 Live Cells [Fold Change]: 4.6 Fold Change
Mec-1 cells; Mec-1, 100 nM, day 6
  Rep 1 Live Cells [Fold Change]: 14 Fold Change
  Rep 2 Live Cells [Fold Change]: 17.1 Fold Change
  Rep 3 Live Cells [Fold Change]: 13.3 Fold Change
Mec-1 cells; Mec-1, 100 nM, day 10
  Rep 1 Live Cells [Fold Change]: 63 Fold Change
  Rep 2 Live Cells [Fold Change]: 155 Fold Change
  Rep 3 Live Cells [Fold Change]: 73.7 Fold Change
Mec-1 cells; Mec-1, 100 nM, day 12
  Rep 1 Live Cells [Fold Change]: 100 Fold Change
  Rep 2 Live Cells [Fold Change]: 297 Fold Change
  Rep 3 Live Cells [Fold Change]: 92.2 Fold Change
Mec-1 cells; Mec-1, 1 µM, day 0
  Rep 1 Live Cells [Fold Change]: 1 Fold Change
  Rep 2 Live Cells [Fold Change]: 1 Fold Change
  Rep 3 Live Cells [Fold Change]: 1 Fold Change
Mec-1 cells; Mec-1, 1 µM, day 3
  Rep 1 Live Cells [Fold Change]: 3.87 Fold Change
  Rep 2 Live Cells [Fold Change]: 4.23 Fold Change
  Rep 3 Live Cells [Fold Change]: 5.4 Fold Change
Mec-1 cells; Mec-1, 1 µM, day 6
  Rep 1 Live Cells [Fold Change]: 7.67 Fold Change
  Rep 2 Live Cells [Fold Change]: 5.09 Fold Change
  Rep 3 Live Cells [Fold Change]: 4.33 Fold Change
Mec-1 cells; Mec-1, 1 µM, day 10
  Rep 1 Live Cells [Fold Change]: 8.99 Fold Change
  Rep 2 Live Cells [Fold Change]: 4.86 Fold Change
  Rep 3 Live Cells [Fold Change]: 2.73 Fold Change
Mec-1 cells; Mec-1, 1 µM, day 12
  Rep 1 Live Cells [Fold Change]: 3.31 Fold Change
  Rep 2 Live Cells [Fold Change]: 4.55 Fold Change
  Rep 3 Live Cells [Fold Change]: 1.12 Fold Change
Mec-1 cells; [1]
  dose at which growth inhibition begins: 100 nM
  effect on growth potential (cell growth): time and dose-dependent growth inhibition
HG3 cells; HG3
  anti-proliferative potency compared to JNJ-64619178, LLY-283, and PF-06855800: similar-to-reduced
HG3 cells; HG3, 1 nM, day 0
  Rep 1 Live Cells [Fold Change]: 1 Fold Change
  Rep 2 Live Cells [Fold Change]: 1 Fold Change
  Rep 3 Live Cells [Fold Change]: 1 Fold Change
HG3 cells; HG3, 1 nM, day 3
  Rep 1 Live Cells [Fold Change]: 5.95 Fold Change
  Rep 2 Live Cells [Fold Change]: 7.45 Fold Change
  Rep 3 Live Cells [Fold Change]: 5.95 Fold Change
HG3 cells; HG3, 1 nM, day 6
  Rep 1 Live Cells [Fold Change]: 46.5092 Fold Change
  Rep 2 Live Cells [Fold Change]: 44.5758 Fold Change
  Rep 3 Live Cells [Fold Change]: 27.1717 Fold Change
HG3 cells; HG3, 1 nM, day 10
  Rep 1 Live Cells [Fold Change]: 425.559 Fold Change
  Rep 2 Live Cells [Fold Change]: 463.589 Fold Change
  Rep 3 Live Cells [Fold Change]: 237.752 Fold Change
HG3 cells; HG3, 1 nM, day 12
  Rep 1 Live Cells [Fold Change]: 1418.53 Fold Change
  Rep 2 Live Cells [Fold Change]: 1486.57 Fold Change
  Rep 3 Live Cells [Fold Change]: 1077.81 Fold Change
HG3 cells; HG3, 10 nM, day 0
  Rep 1 Live Cells [Fold Change]: 1 Fold Change
  Rep 2 Live Cells [Fold Change]: 1 Fold Change
  Rep 3 Live Cells [Fold Change]: 1 Fold Change
HG3 cells; HG3, 10 nM, day 3
  Rep 1 Live Cells [Fold Change]: 6.983 Fold Change
  Rep 2 Live Cells [Fold Change]: 6.833 Fold Change
  Rep 3 Live Cells [Fold Change]: 6.567 Fold Change
HG3 cells; HG3, 10 nM, day 6
  Rep 1 Live Cells [Fold Change]: 48.6506 Fold Change
  Rep 2 Live Cells [Fold Change]: 58.5389 Fold Change
  Rep 3 Live Cells [Fold Change]: 42.7928 Fold Change
HG3 cells; HG3, 10 nM, day 10
  Rep 1 Live Cells [Fold Change]: 471.91 Fold Change
  Rep 2 Live Cells [Fold Change]: 680.515 Fold Change
  Rep 3 Live Cells [Fold Change]: 419.369 Fold Change
HG3 cells; HG3, 10 nM, day 12
  Rep 1 Live Cells [Fold Change]: 1691.01 Fold Change
  Rep 2 Live Cells [Fold Change]: 2381.8 Fold Change
  Rep 3 Live Cells [Fold Change]: 2411.37 Fold Change
HG3 cells; HG3, 100 nM, day 0
  Rep 1 Live Cells [Fold Change]: 1 Fold Change
  Rep 2 Live Cells [Fold Change]: 1 Fold Change
  Rep 3 Live Cells [Fold Change]: 1 Fold Change
HG3 cells; HG3, 100 nM, day 3
  Rep 1 Live Cells [Fold Change]: 3.433 Fold Change
  Rep 2 Live Cells [Fold Change]: 6.117 Fold Change
  Rep 3 Live Cells [Fold Change]: 4.417 Fold Change
HG3 cells; HG3, 100 nM, day 6
  Rep 1 Live Cells [Fold Change]: 12.7033 Fold Change
  Rep 2 Live Cells [Fold Change]: 20.7661 Fold Change
  Rep 3 Live Cells [Fold Change]: 13.7726 Fold Change
HG3 cells; HG3, 100 nM, day 10
  Rep 1 Live Cells [Fold Change]: 31.282 Fold Change
  Rep 2 Live Cells [Fold Change]: 112.137 Fold Change
  Rep 3 Live Cells [Fold Change]: 30.472 Fold Change
HG3 cells; HG3, 100 nM, day 12
  Rep 1 Live Cells [Fold Change]: 66.0571 Fold Change
  Rep 2 Live Cells [Fold Change]: 233.431 Fold Change
  Rep 3 Live Cells [Fold Change]: 63.4325 Fold Change
HG3 cells; HG3, 1 µM, day 0
  Rep 1 Live Cells [Fold Change]: 1 Fold Change
  Rep 2 Live Cells [Fold Change]: 1 Fold Change
  Rep 3 Live Cells [Fold Change]: 1 Fold Change
HG3 cells; HG3, 1 µM, day 3
  Rep 1 Live Cells [Fold Change]: 3.05 Fold Change
  Rep 2 Live Cells [Fold Change]: 6.15 Fold Change
  Rep 3 Live Cells [Fold Change]: 3.933 Fold Change
HG3 cells; HG3, 1 µM, day 6
  Rep 1 Live Cells [Fold Change]: 3.162 Fold Change
  Rep 2 Live Cells [Fold Change]: 4.9815 Fold Change
  Rep 3 Live Cells [Fold Change]: 4.615 Fold Change
HG3 cells; HG3, 1 µM, day 10
  Rep 1 Live Cells [Fold Change]: 2.64 Fold Change
  Rep 2 Live Cells [Fold Change]: 3.873 Fold Change
  Rep 3 Live Cells [Fold Change]: 1.218 Fold Change
HG3 cells; HG3, 1 µM, day 12
  Rep 1 Live Cells [Fold Change]: 1.11 Fold Change
  Rep 2 Live Cells [Fold Change]: 5.3136 Fold Change
  Rep 3 Live Cells [Fold Change]: 0.1619 Fold Change
HG3 cells; [2]
  dose at which growth inhibition begins: 100 nM
  effect on growth potential (cell growth): time and dose-dependent growth inhibition
HG3 CLL cell line
  lowest dose with decrease in global SDMA residues: 100 nM
